Results on 20 compounds are retold here after patent US20240116921A1, “LACTAM (HETERO)[…] DERIVATIVES AS INHIBITORS OF ERBB2” (EnLiven Therapeutics, Inc., priority 2020, published 2024).

As a reminder, the IC50 is the midpoint of a concentration-inhibition curve.

Structures are written as SMILES. Structures can show the parent of a compound that is named as a salt. A value given as a limit tells only on which side of the number the result lay.

In experiment [1] the target is T1, phosphorylated EGFR (pEGFR) (Homo sapiens, UniProt P00533).
T1 construct: performed to measure phosphorylated EGFR levels using A431 cells (10% FBS); endogenous in cells; host or cells: A431
Nature of the experiment: Detection of phosphorylated EGFR (pEGFR) in EGF-stimulated A431 cells. In kind it is cell-based. As to conditions: A431 cells (10% FBS), 4 hours incubation, EGF 30 ng/mL 10 minutes, AlphaLISA. The essentials: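 AlphaLISA read-out of EGFR phosphorylation after a 10-min EGF pulse (30 ng/mL final). A431 cells (10% FBS) had been exposed to compound for 4 h at 37 °C. IC50 was fitted from % inhibition normalised to DMSO and staurosporine control lysates.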

Experiment [2] addresses Ba/F3 ERBB2 A775_G776insYVMA (Homo sapiens, UniProt P04626, DUP772-775, cells depend on it). Briefly: Cell viability assay, Ba/F3 ERBB2 A775_G776insYVMA. Format: cell-based, mouse. Particulars: Ba/F3 ERBB2 YVMA cells, cell viability, 72 hours, CellTiter Glo; Table B5; read-out: Ba/F3 ERBB2 YVMA, IC50. The essentials: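 Viability after 72 h compound treatment (37 °C, 5% CO2) was quantified by CellTiter-Glo luminescence of intracellular ATP, with sigmoidal dose-response fitting. Cells were retrovirally engineered Ba/F3 lines whose growth depends on the mutant human ERBB2 in place of IL-3, plated at 3000 per well.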
(In general: ATP-based viability assays read luminescence as a measure of living cells.)

Experiment [3] has as its target T2, phosphorylated ERBB2 (pERBB2) (Homo sapiens, UniProt P04626).
T2 construct: endogenous in cells; host or cells: BT-474
Briefly: Detection of phosphorylated ERBB2 (pERBB2) by ELISA in BT-474 cells. In kind it is cell-based. Particulars: four hours incubation. The essentials:
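Phospho-ERBB2 in lysates was quantified by sandwich ELISA (A450, TMB) after 4 h compound exposure at 37 °C of BT-474 cells seeded at 2.0×10^4 per well. Compounds tested at 10 µM to 0.01 nM final in four-fold steps; activity normalized to DMSO (0.1%) high and cell-free low controls.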
In general terms: ELISA stands for enzyme-linked immunosorbent assay.

T1 sequence (P00533 25-1210): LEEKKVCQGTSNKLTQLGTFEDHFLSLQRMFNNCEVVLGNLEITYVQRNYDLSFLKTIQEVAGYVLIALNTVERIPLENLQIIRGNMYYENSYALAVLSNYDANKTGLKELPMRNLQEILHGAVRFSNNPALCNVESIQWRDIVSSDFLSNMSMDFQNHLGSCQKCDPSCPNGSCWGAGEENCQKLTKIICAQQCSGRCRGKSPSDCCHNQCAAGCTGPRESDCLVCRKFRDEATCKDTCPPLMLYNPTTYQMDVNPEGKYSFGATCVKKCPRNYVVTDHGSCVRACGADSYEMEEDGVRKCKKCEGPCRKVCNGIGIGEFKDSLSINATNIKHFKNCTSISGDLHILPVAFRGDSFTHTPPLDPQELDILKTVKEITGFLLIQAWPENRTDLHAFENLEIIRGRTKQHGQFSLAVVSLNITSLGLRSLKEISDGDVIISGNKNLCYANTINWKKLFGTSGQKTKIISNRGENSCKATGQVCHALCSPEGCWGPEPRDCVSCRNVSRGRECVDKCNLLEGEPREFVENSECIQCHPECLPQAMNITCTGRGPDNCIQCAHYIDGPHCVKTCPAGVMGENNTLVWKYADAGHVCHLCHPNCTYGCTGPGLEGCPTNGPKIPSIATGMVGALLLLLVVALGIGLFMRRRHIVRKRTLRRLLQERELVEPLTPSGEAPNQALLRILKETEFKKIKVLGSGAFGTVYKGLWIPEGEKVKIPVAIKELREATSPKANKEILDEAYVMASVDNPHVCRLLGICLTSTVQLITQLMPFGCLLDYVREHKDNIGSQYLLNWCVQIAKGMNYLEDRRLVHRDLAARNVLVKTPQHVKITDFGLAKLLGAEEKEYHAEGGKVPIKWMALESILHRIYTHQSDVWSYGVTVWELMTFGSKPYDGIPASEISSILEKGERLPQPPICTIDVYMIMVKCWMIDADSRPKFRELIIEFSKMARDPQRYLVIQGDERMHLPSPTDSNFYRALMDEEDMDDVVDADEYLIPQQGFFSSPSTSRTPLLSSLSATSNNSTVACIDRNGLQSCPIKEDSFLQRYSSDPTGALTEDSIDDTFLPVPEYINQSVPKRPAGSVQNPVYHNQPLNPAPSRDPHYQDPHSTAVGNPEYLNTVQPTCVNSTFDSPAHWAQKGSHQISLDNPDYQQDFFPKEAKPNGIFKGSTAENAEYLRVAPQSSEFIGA
Sequence of Ba/F3 ERBB2 A775_G776insYVMA (P04626 with tags, fused parts or gaps DUP772-775): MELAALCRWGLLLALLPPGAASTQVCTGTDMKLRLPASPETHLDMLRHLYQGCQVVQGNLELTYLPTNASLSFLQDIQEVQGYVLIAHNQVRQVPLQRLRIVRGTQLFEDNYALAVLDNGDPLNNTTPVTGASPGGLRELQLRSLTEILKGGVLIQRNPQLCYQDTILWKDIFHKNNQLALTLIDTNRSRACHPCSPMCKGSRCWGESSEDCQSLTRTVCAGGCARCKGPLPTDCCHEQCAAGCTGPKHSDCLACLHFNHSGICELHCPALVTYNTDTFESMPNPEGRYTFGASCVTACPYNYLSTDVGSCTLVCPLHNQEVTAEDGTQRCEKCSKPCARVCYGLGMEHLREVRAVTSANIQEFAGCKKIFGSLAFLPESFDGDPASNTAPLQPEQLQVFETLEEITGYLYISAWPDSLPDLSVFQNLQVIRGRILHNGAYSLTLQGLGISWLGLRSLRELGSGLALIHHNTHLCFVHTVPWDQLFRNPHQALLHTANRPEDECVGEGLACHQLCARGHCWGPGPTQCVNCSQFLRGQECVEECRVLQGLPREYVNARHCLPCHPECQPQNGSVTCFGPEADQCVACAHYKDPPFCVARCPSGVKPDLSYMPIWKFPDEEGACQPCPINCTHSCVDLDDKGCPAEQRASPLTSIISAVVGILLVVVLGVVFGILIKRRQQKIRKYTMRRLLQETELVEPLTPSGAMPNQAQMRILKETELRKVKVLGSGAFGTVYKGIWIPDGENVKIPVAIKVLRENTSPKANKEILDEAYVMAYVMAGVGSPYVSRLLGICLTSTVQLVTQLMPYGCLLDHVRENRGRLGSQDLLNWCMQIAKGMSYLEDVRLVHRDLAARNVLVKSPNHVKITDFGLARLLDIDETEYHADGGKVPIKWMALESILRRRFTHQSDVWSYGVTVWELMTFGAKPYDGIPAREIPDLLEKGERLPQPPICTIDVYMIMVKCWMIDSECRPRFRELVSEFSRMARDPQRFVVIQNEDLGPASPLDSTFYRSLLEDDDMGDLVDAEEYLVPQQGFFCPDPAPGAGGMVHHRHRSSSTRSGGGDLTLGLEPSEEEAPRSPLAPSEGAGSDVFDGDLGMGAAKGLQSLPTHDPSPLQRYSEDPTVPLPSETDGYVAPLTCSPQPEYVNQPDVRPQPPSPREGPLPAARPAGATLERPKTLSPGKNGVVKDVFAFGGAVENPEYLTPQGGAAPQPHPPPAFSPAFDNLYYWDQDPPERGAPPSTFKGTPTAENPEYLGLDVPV
T2 sequence (P04626 23-1255): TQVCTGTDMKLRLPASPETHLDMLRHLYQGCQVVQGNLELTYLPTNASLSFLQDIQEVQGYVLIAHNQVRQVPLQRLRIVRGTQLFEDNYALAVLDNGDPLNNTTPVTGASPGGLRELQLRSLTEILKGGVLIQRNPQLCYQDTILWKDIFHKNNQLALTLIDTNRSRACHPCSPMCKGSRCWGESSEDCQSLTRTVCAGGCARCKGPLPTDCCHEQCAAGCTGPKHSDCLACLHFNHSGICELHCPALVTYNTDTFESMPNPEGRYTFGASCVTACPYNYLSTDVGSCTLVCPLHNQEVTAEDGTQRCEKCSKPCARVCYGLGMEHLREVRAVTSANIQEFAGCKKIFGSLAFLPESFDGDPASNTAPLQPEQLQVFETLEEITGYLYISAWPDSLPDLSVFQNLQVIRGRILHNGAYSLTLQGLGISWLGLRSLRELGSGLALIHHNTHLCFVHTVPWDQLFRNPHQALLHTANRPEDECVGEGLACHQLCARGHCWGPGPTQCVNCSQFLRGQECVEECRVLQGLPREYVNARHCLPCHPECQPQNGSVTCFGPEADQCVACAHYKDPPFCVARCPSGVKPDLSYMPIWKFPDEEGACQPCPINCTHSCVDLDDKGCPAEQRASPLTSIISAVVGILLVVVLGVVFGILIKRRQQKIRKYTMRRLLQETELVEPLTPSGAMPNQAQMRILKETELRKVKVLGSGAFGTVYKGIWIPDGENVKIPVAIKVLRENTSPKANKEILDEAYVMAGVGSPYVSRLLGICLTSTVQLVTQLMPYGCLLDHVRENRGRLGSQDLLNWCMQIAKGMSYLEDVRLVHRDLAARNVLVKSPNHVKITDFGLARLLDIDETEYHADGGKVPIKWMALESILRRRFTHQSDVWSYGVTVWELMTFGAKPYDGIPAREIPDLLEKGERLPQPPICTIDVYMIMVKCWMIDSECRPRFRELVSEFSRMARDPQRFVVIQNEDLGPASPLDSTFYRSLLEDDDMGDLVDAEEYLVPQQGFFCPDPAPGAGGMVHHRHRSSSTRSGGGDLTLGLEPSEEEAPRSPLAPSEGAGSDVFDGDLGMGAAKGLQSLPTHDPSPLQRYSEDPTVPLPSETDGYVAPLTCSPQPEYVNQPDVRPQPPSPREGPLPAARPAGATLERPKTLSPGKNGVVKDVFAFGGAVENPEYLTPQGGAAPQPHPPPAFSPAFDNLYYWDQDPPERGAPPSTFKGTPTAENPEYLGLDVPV

As to `Cc1cc(Nc2ncnc3ccc(N4CC/C(=C\CCN(C)C)C4=O)nc23)ccc1Oc1ccn2ncnc2c1` [Compound 48, (3E)-3-[3-(dimethylamino)propylidene]-1-{4-[(3-methyl-4-{[1,2,4]triazolo[1,5-a]pyridin-7-yloxy}phenyl)amino]pyrido[3,2-d]pyrimidin-6-yl}pyrrolidin-2-one], the IC50 in experiment [1] amounted to 0.0635 µM; in experiment [3], 0.0124 µM. Further, the GI50 in experiment [2] was 0.000837 µM.
As to `Cc1ccc(Oc2ccc(Nc3ncnc4ccc(N5CC/C(=C\CN(C)C)C5=O)nc34)cc2C)cn1` [Compound 49, (E)-3-(2-(dimethylamino)ethylidene)-1-(4-((3-methyl-4-((6-methylpyridin-3-yl)oxy)phenyl)amino)pyrido[3,2-d]pyrimidin-6-yl)pyrrolidin-2-one], the IC50 in experiment [1] stood at 0.173 µM; in experiment [3], 0.0139 µM. The GI50 in experiment [2] turned out to be 0.000999 µM.
As to `C=C1CCN(c2ccc3ncnc(Nc4ccc(Oc5ccc6cncnc6c5)c(C)c4)c3c2)C1=O` [Compound 50, 1-(4-{[3-methyl-4-(quinazolin-7-yloxy)phenyl]amino}quinazolin-6-yl)-3-methylidenepyrrolidin-2-one], the IC50 in experiment [1] amounted to 2.15 µM; in experiment [3], 0.0801 µM. In experiment [2], the GI50 was found to be 0.0464 µM.
The matching figures for `C=C1CCN(c2ccc3ncnc(Nc4ccc(Cc5ccc6c(c5)ncn6C)c(C)c4)c3c2)C1=O` [Compound 52, 1-[4-({3-methyl-4-[(1-methyl-1,3-benzodiazol-5-yl)methyl]phenyl}amino)quinazolin-6-yl]-3-methylidenepyrrolidin-2-one]: more than 10 µM, 0.0812 µM and 0.0219 µM.
In the case of `Cc1cc(Nc2ncnc3ccc(N4CC/C(=C\CCN(C)C)C4=O)nc23)ccc1Oc1ccc2c(c1)ncn2C` [Compound 53, (3E)-3-[3-(dimethylamino)propylidene]-1-[4-({3-methyl-4-[(1-methyl-1,3-benzodiazol-5-yl)oxy]phenyl}amino)pyrido[3,2-d]pyrimidin-6-yl]pyrrolidin-2-one], the results for the 50% inhibitory concentration (IC50) in experiment [1] and in experiment [3] were 0.076 µM and 0.0356 µM, respectively. Further, in experiment [2], the GI50 amounted to 0.00205 µM.
For `Cc1cc(Nc2ncnc3ccc(N4CC/C(=C\CN(C)C)C4=O)nc23)ccc1Cc1ccc2c(c1)ncn2C` [Compound 54, (3E)-3-[2-(dimethylamino)ethylidene]-1-[4-({3-methyl-4-[(1-methyl-1,3-benzodiazol-5-yl)methyl]phenyl}amino)pyrido[3,2-d]pyrimidin-6-yl]pyrrolidin-2-one], the half-inhibitory concentration (IC50) turned out to be 1.54 µM in experiment [1] and 0.042 µM in experiment [3]. Besides, the GI50 in experiment [2] turned out to be 0.00537 µM.
Turning to `Cc1cc(Nc2ncnc3ccc(N4CC/C(=C\CN(C)C)C4=O)nc23)ccc1Oc1ccn(C(F)F)c(=O)c1` [Compound 55, 1-(difluoromethyl)-4-[4-({6-[(3E)-3-[2-(dimethylamino)ethylidene]-2-oxopyrrolidin-1-yl]pyrido[3,2-d]pyrimidin-4-yl}amino)-2-methylphenoxy]pyridin-2-one], the IC50 was 0.25 µM in experiment [1] and 0.0231 µM in experiment [3]. Also, in experiment [2], the GI50 amounted to 0.023 µM.
Consider `C=C1CCN(c2cc3c(Nc4ccc(Oc5ccn6ncnc6c5)c(C)c4)ncnc3cc2OCCN(C)C)C1=O` [Compound 56, 1-{7-[2-(dimethylamino)ethoxy]-4-[(3-methyl-4-{[1,2,4]triazolo[1,5-a]pyridin-7-yloxy}phenyl)amino]quinazolin-6-yl}-3-methylidenepyrrolidin-2-one], for which the IC50 in experiment [1] is more than 10 µM; in experiment [3], 6.52 µM. Further, in experiment [2], the GI50 is more than 0.5 µM.
Consider `C=C1C(=O)N(c2ccc3ncnc(Nc4ccc(Oc5ccc6c(c5)ncn6C)c(C)c4)c3n2)C[C@H]1C` [Compound 59, (4S)-4-methyl-1-[4-({3-methyl-4-[(1-methyl-1,3-benzodiazol-5-yl)oxy]phenyl}amino)pyrido[3,2-d]pyrimidin-6-yl]-3-methylidenepyrrolidin-2-one], for which the IC50 in experiment [1] was 0.71 µM; in experiment [3], 0.0607 µM. Besides, in experiment [2], the GI50 came out at 0.0134 µM.
On to `Cc1cc(Nc2ncnc3cnc(N4CC/C(=C\CCN(C)C)C4=O)cc23)ccc1Oc1ccn2ncnc2c1` [Compound 60, (E)-1-(4-(4-([1,2,4]triazolo[1,5-a]pyridin-7-yloxy)-3-methylphenylamino)pyrido[3,4-d]pyrimidin-6-yl)-3-(3-(dimethylamino)propylidene)pyrrolidin-2-one formate], for which the concentration for half-maximal inhibition (IC50) was determined as 3.04 µM in experiment [1] and 0.012 µM in experiment [3]. The GI50 in experiment [2] came out at 0.0225 µM.
For `Cc1cc(Nc2ncnc3ccc(N4CC/C(=C\CN(C)C)C4=O)nc23)ccc1Oc1ccc2nccnc2c1` [Compound 61, (E)-3-(2-(dimethylamino)ethylidene)-1-(4-(3-methyl-4-(quinoxalin-6-yloxy)phenylamino)pyrido[3,2-d]pyrimidin-6-yl)pyrrolidin-2-one] the same measures were 1.01 µM, 0.132 µM and 0.00715 µM.
The matching figures for `Cc1cc(Nc2ncnc3ccc(N4CC/C(=C\CN(C)C)C4=O)nc23)ccc1Oc1cccnc1` [Compound 62, (3E)-3-[2-(dimethylamino)ethylidene]-1-(4-{[3-methyl-4-(pyridin-3-yloxy)phenyl]amino}pyrido[3,2-d]pyrimidin-6-yl)pyrrolidin-2-one]: 0.212 µM, 0.0239 µM and 0.00436 µM.
For `CCn1cnc2cc(Oc3ccc(Nc4ncnc5ccc(N6CC/C(=C\CN(C)C)C6=O)nc45)cc3C)ccc21` [Compound 65, (3E)-3-[2-(dimethylamino)ethylidene]-1-[4-({4-[(1-ethyl-1,3-benzodiazol-5-yl)oxy]-3-methylphenyl}amino)pyrido[3,2-d]pyrimidin-6-yl]pyrrolidin-2-one], the IC50 was more than 10 µM in experiment [1] and 0.128 µM in experiment [3]. Also, in experiment [2], the GI50 was found to be 0.0364 µM.
For the compound `Cc1cc(Nc2ncnc3ccc(N4CC/C(=C\CN(C)C)C4=O)nc23)ccc1Oc1ccc2ocnc2c1` [Compound 66, (E)-1-(4-((4-(benzo[d]oxazol-5-yloxy)-3-methylphenyl)amino)pyrido[3,2-d]pyrimidin-6-yl)-3-(2-(dimethylamino)ethylidene)pyrrolidin-2-one], the 50% inhibitory concentration (IC50) in experiment [1] turned out to be 0.0936 µM; in experiment [3], 0.0342 µM. Besides, in experiment [2], the GI50 is 0.00195 µM.
As for `Cc1cc(Nc2ncnc3ccc(N4CC/C(=C\CN(C)C)C4=O)nc23)ccc1Oc1ccc2scnc2c1` [Compound 67, (E)-1-(4-((4-(benzo[d]thiazol-5-yloxy)-3-methylphenyl)amino)pyrido[3,2-d]pyrimidin-6-yl)-3-(2-(dimethylamino)ethylidene)pyrrolidin-2-one], the IC50 in experiment [1] stood at 0.0532 µM; in experiment [3], 0.0442 µM. Further, the GI50 in experiment [2] was 0.00182 µM.
With `Cc1cc(Nc2ncnc3ccc(N4CC/C(=C\CN(C)C)C4=O)nc23)ccc1Oc1ccc2c(c1)nnn2C` [Compound 68, (3E)-3-[2-(dimethylamino)ethylidene]-1-[4-({3-methyl-4-[(1-methyl-1,2,3-benzotriazol-5-yl)oxy]phenyl}amino)pyrido[3,2-d]pyrimidin-6-yl]pyrrolidin-2-one], the half-inhibitory concentration (IC50) in experiment [1] came out at 0.973 µM; in experiment [3], 0.0305 µM. The GI50 in experiment [2] is 0.00381 µM.
`Cc1c(Oc2ccc3c(c2)ncn3C)ccc(Nc2ncnc3ccc(N4CC/C(=C\CN(C)C)C4=O)nc23)c1F` [Compound 69, (3E)-3-[2-(dimethylamino)ethylidene]-1-[4-({2-fluoro-3-methyl-4-[(1-methyl-1,3-benzodiazol-5-yl)oxy]phenyl}amino)pyrido[3,2-d]pyrimidin-6-yl]pyrrolidin-2-one]: the IC50 was more than 10 µM in experiment [1] and 0.0564 µM in experiment [3]. In experiment [2], the GI50 is 0.00357 µM.
`Cc1cc(Nc2ncnc3ccc(N4CC/C(=C\CN(C)C)C4=O)nc23)c(F)cc1Oc1ccc2c(c1)ncn2C` [Compound 70, (3E)-3-[2-(dimethylamino)ethylidene]-1-[4-({2-fluoro-5-methyl-4-[(1-methyl-1,3-benzodiazol-5-yl)oxy]phenyl}amino)pyrido[3,2-d]pyrimidin-6-yl]pyrrolidin-2-one]: the concentration for half-maximal inhibition (IC50) in experiment [1] stood at 1.99 µM; in experiment [3] it was 0.0344 µM. For the same compound, the GI50 in experiment [2] was found to be 0.00429 µM.
`Cc1cc(Nc2ncnc3ccc(N4CC/C(=C\CN(C)C)C4=O)nc23)ccc1Oc1ccn2ccnc2c1` [Compound 71, (3E)-3-[2-(dimethylamino)ethylidene]-1-{4-[(4-{imidazo[1,2-a]pyridin-7-yloxy}-3-methylphenyl)amino]pyrido[3,2-d]pyrimidin-6-yl}pyrrolidin-2-one]: the IC50 is 0.273 µM in experiment [1] and 0.0257 µM in experiment [3]. Moreover, the GI50 in experiment [2] was 0.00256 µM.
For `CCc1ccc(Oc2ccc(Nc3ncnc4ccc(N5CC/C(=C\CN(C)C)C5=O)nc34)cc2C)cn1` [Compound 72, (E)-3-(2-(dimethylamino)ethylidene)-1-(4-((4-((6-ethylpyridin-3-yl)oxy)-3-methylphenyl)amino)pyrido[3,2-d]pyrimidin-6-yl)pyrrolidin-2-one] the same measures were 1.88 µM, 0.0449 µM and 0.00537 µM.
